Tests used:
Type in all cases: cell-based, human
NK-92 cells [1] = assay: Microarray gene expression analysis, NK-92; details: IC-50 concentration (1 μM), 24 hours; FC cutoff >1.5, <−1.5, p<0.05
Description: (§1) A total of 0.5×10^6 tumor cells (HCT-116, HT-29, KM12C) were plated in a 6-well plate and allowed to adhere overnight before 24-hour treatment as indicated. 1×10^6 immune cells (NK92, TALL-104) were plated and treated with elraglusib as indicated for 24 hours. RNA was isolated from cell pellets in batches of 6 using an RNeasy Plus Mini Kit (Cat #74134, Qiagen, Hilden, Germany). Acceptable RNA concentration and quality were verified with Nanodrop and Bioanalyzer measurements. GeneChip™ Human Transcriptome Array 2.0 assays were conducted according to manufacturer instructions in two batches using randomized samples to limit batch effects (Cat #902162, Applied Biosystems, Waltham, MA, USA). Applied Biosystems Transcriptomic Analysis Console (TAC) software (RRID: SCR_016519) was used to calculate fold changes in gene expression relative to the untreated control cells. Values were considered statistically significant for p values <0.05.

TALL-104 cells [2] = assay: Cytokine profiling of cell culture supernatant (Luminex 200), TALL-104
Description: Cells were plated at 3.5×10^4 cells in a 48-well plate (Thermo Fisher Scientific, Waltham, MA, USA) in complete medium and incubated at 37° C. with 5% CO2. At 24 hours after plating, almost all the tumor cells were adherent to the bottom of the flask and the complete medium was replaced with the drug-containing medium. […] On the day of analysis, samples were thawed and centrifuged to remove cellular debris.
Human cell line culture supernatants were analyzed using an R&D systems Human Premixed Multi-Analyte Kit (R&D Systems, Inc., Minneapolis, MN, USA) and a Luminex 200 (RRID: SCR_018025) Instrument (LX200-XPON-RUO, Luminex Corporation, Austin, TX, USA) according to the manufacturer's instructions. Sample levels of TNF-α, 4-1BB/TNFRSF9/CD137, IL-8/CXCL8, Ferritin, IFN-β, IL-10, CCL2/JE/MCP-1, VEGF, CXCL13/BLC/BCA-1, IFN-γ, CCL20/MIP-3 α, CCL3/MIP-1 α, CCL22/MDC, CCL4/MIP-1 β, Fas Ligand/TNFSF6, IL-17/IL-17A, IL-2, BAFF/BLyS/TNFSF13B, GM-CSF, CXCL5/ENA-78, TRANCE/TNFSF11/RANK L, CXCL9/MIG, G-CSF, IFN-γ R1/CD119, VEGFR3/Flt-4, C-Reactive Protein/CRP, CXCL11/I-TAC, IL-21, CXCL14/BRAK, IL-6, Fas/TNFRSF6/CD95, TRAIL R3/TNFRSF10C, IL-4, CCL5/RANTES, PD-L1/B7-H1, CCL7/MCP-3/MARC, Chitinase 3-like 1, CXCL10/IP-10/CRG-2, IL-1 β/IL-1F2, IL-7, Prolactin, CCL8/MCP-2, TRAIL R2/TNFRSF10B, M-CSF, IL-15, Granzyme B, IFN-α, TREM-1, IL-12/IL-23 p40, TRAIL/TNFSF10, CCL11/Eotaxin, and IL-18/IL-1F4. Quantitative analysis with 6 standards and a minimum of 50 counts per bead region was used with the Luminex to generate analyte values reported as picograms/milliliter (pg/mL). Sample concentrations less than the lower limit of detection for each particular analyte were recoded as the lower limit value divided by ten. Sample concentrations above the upper limit of detection for a particular analyte were recoded as the upper limit of detection.

NK-92 cells [3] = assay: 10x single-cell sequencing, NK-92; details: 1 μM, 24 hours vs DMSO
Description: (§2) Single cells were captured and 3′ single-cell gene expression libraries were conducted (Next GEM v3.1) using the 10× Genomics Chromium system by SingulOmics (SingulOmics, New York, NY, USA). Gene expression libraries were sequenced with ~200 million PE150 reads per sample on Illumina (RRID: SCR_016387) NovaSeq (Illumina, Inc., San Diego, CA, USA). After sequencing clean reads were then analyzed with human reference genome GRCh38 using Cell Ranger v6.1.2 ([RRID: SCR_017344],10× Genomics, Pleasanton, CA, USA). Data were analyzed and visualized using Loupe Browser ([RRID: SCR_018555], 10× Genomics, Pleasanton, CA, USA).

TALL-104 cells [4] = assay: 10x single-cell sequencing, TALL-104; details: 1 μM, 24 hours vs DMSO
Description: as §2

SW480 tumor cells = assay: Multicolor co-culture of SW480 tumor cells and donor-derived CD8+ T cells, EthD-1 dead cells; details: for percentage of dead cells (average, normalized): then co-culture with donor-derived CD8+ T cells; for percentage of dead cells out of total cells (average, normalized): co-culture with donor-derived CD8+ T cells, 24 hours
Description: An Easy Step Human CD8+ T Cell Isolation Kit was used to isolate CD8+ T cells from a donor PBMC sample via negative selection (Cat #, 17913, Stem Cell Technologies, Vancouver, Canada).
10,000 HCT-116, SW480, or HT-29 cells were plated per well in a clear-bottom, black-walled 48-well tissue culture plate and were allowed to adhere overnight. Cells were subsequently treated with DMSO, 5 μM or 10 μM elraglusib, and/or 10,000 TALL-104 or NK-92 cells (for an effector-to-tumor ratio of 1:1) for 24 hours. CRC cells were labeled using CellTracker™ Green CMFDA (5-chloromethylfluorescein diacetate), immune cells (NK-92, TALL-104) were labeled using CellTracker™ Blue CMAC Dye (7-amino-4-chloromethylcoumarin), and ethidium homodimer-1 (EthD-1) was used as a marker of cell death (Invitrogen, Waltham, MA). 10× images were captured using a Nikon Ti-U Inverted Fluorescence Microscope and NIS-Elements F Package imaging software 3.22.00 Build 710 (Nikon Instruments Inc, USA). The number of red/green color cells in random fields was determined using thresholding and particle analysis in the Fiji modification (RRID: SCR_002285) of ImageJ and expressed as a dead/live cell ratio. Normalization was carried out by subtracting the percentage of cell death due to drug or vehicle control (DMSO) only from the percentage of dead cells observed in the co-culture of tumor and immune cells treated with the drug. At least 100 cells were evaluated per sample, with 3 independent replicates. Statistical analysis was done using GraphPad Prism 9 (RRID: SCR_002798).

KM12C cells = assay: Microarray gene expression analysis, KM12C
Description: as §1

Cn1cc(C2=C(c3coc4ccc(F)cc34)C(=O)NC2=O)c2cc3c(cc21)OCO3 [elraglusib, 3-(5-fluorobenzofuran-3-yl)-4-(5-methyl-5H-[1,3]dioxolo[4,5-f]indol-7-yl)-1H-pyrrole-2,5-dione]
differentially expressed genes post-treatment (NK-92 cells [1]): 61
IFN-γ concentration in supernatant (TALL-104 cells [2]; 1 μM, 48 hours): increases
TRAIL concentration in supernatant (TALL-104 cells [2]; 1 μM, 48 hours): increases
granzyme B concentration in supernatant (TALL-104 cells [2]; 1 μM, 48 hours): increases
IFN-γ in cell culture supernatant (TALL-104 cells [2]; 24 hours treatment vs DMSO): significant increase in IFN-γ
immune cell activation marker CD69 expression (NK-92 cells [3]): increase
immune cell attractant CCL4 expression (NK-92 cells [3]): increase
immunosuppressive marker CHI3L1 expression (NK-92 cells [3]): decrease
immune cell activation marker CD69 expression (TALL-104 cells [4]): increase
immune cell chemoattractant CXCR4 expression (TALL-104 cells [4]): increase
immunosuppressive marker CHI3L1 expression (TALL-104 cells [4]): decrease
percentage of dead cells (average, normalized) (SW480 tumor cells; 10 μM for 24 hours): 70%
percentage of dead cells out of total cells (average, normalized) (SW480 tumor cells; 5 μM): 65%
percentage of dead cells out of total cells (average, normalized) (SW480 tumor cells; 10 μM): 75%
tumor cell death in SW480 monocultures (SW480 tumor cells; drug only, no immune cells): limited tumor cell death
percentage of dead cells (average, normalized) (SW480 tumor cells; tumor cells pre-treated with 5 μM for 24 hours): 65%
GZMA (granzyme A) gene expression fold change (KM12C cells; 24 hours vs DMSO): 1.53 FC
downregulated genes in VEGFA-VEGFR2 signaling pathway (KM12C cells; 24 hours vs DMSO): 48
differentially expressed genes post-treatment (KM12C cells; IC-50 concentration (1 μM), 24 hours, FC cutoff >1.5, <−1.5, p<0.05): 1,032
